Reference: US20260015363A1, “SUBSTITUTED PYRIMIDINE-FUSED RING INHIBITOR, METHOD FOR PREPARING SAME, AND USE THEREOF” (Suzhou Zelgen Biopharmaceuticals Co., Ltd., priority 2022, published 2026)
Like-named read-outs stand apart in the source and are kept apart here.

Key:
[1] = system: AsPC-1 (G12D); test: KRAS mutant cell proliferation inhibition assay (CellTiter-Glo 3D), AsPC-1; type: cell-based, human; details: AsPC-1 (G12D) cells, 7 days
Description: (§1) Positive control: MRTX1133
(§2) • (a) The cells were thawed in T75 cell culture flasks: • (b) When 80%-90% cell confluence was achieved, the cells were passaged.
(§3) The diluted test compound was added to a 384-well cell culture plate using a nanoliter pipetting system, and replicate wells were set. An equal volume of medium was added to the positive control group; an equal volume of DMSO was added to the negative control group. The plate was centrifuged at 1000 rpm at room temperature for 1 min.
(§4) The cells were seeded into a) 384-well culture plate. An equal volume of cells was added to the negative control group, and only an equal volume of medium was added to the positive control group. The plate was centrifuged at 1000 rpm at room temperature for 1 min. The final DMSO concentration in the final compound was 0.5%. The plate was incubated in a thermostatic incubator at 37° C. with 5% CO2 for 7 days.
(§5) CellTiter-Glo® 3D was added to b) 384-well cell culture plate at 20 μL/well. The plate was shaken at 320 rpm in the dark for 20 min, and incubated at room temperature in the dark for 2 h. The luminescence values were read using an Envision multi-mode microplate reader.
(§6) The inhibition rates (IRs) of the test compounds were calculated according to the following formula: IR (%)=(1−(RLU compound−RLU blank control)/(RLU vehicle control−RLU blank control))×100%. The inhibition rates of the compounds at different concentrations were calculated in Excel, and then inhibition curves were plotted and relevant parameters including minimum inhibition rate, maximum inhibition rate and IC50 were calculated using GraphPad Prism software.

[2] = system: H727 (G12V); test: KRAS mutant cell proliferation inhibition assay (CellTiter-Glo 3D), H727; type: cell-based, human; details: H727 (G12V) cells, 7 days
Description: as §1, §2, §3, §4, §5, §6

[3] = system: SW480 (G12V); test: KRAS mutant cell proliferation inhibition assay (CellTiter-Glo 3D), SW480; type: cell-based; details: Homo sapiens, 168 h, SW480 (G12V) cells, 7 days
Description: as §1, §2, §3, §4, §5, §6

[4] = system: PSN-1 (G12R); test: KRAS mutant cell proliferation inhibition assay (CellTiter-Glo 3D), PSN-1; type: cell-based; details: PSN-1 (G12R) cells, 7 days
Description: as §1, §2, §3, §4, §5, §6

[5] = system: MNK1 (WT); test: Cell proliferation inhibition assay (CellTiter-Glo 3D), MNK1; type: cell-based, human; details: MNK1 (WT) cells, 7 days
Description: as §1, §2, §3, §4, §5, §6

IC50 ([1]; Homo sapiens, ASPC1, 168 h)	IC50 ([2]; Homo sapiens, NCI-H727, 168 h)	IC50 [3]	IC50 [1]	IC50 [2]	SMILES	IC50 ([4]; Homo sapiens, PSN1, 168 h)	IC50 ([5]; Homo sapiens, 168 h)	IC50 ([4]; read-out: PSN1 IC50)	IC50 [5]
11.4 nM	45.1 nM	68.2 nM	–	–	CCc1c(F)ccc2cc(O)cc(-c3ncc4c(N5CCCC6(CCO6)C5)nc(OC[C@@]56CCCN5C[C@@]5(CC5(F)F)C6)nc4c3F)c12 (stereo partly drawn) [Example A-16, 4-(2-(((1S,7a'S)-2,2-Difluorodihydro-1′H,3′H-spiro[cyclopropane-1,2′-pyrrolizin]-7a′ (5′H)-yl)methoxy)-8-fluoro-4-(1-oxa-6-azaspiro[3.5]nonan-6-yl)pyrido[4,3-d]pyrimidin-7-yl)-5-ethyl-6-fluoronaphthalen-2-ol]	1000 nM	22.7 nM	–	–
11.1 nM	101 nM	–	–	–	CCc1c(F)ccc2cc(O)cc(-c3ncc4c(N5CCCn6nc(C(=O)N(C)C)cc6C5)nc(OC[C@@]56CCCN5C[C@@]5(CC5(F)F)C6)nc4c3F)c12 [Example A-24, 5-(2-(((1S,7a'S)-2,2-Difluorodihydro-1′H,3′H-spiro[cyclopropane-1,2′-pyrrolizin]-7a′ (5′H)-yl)methoxy)-7-(8-ethyl-7-fluoro-3-hydroxynaphthalen-1-yl)-8-fluoropyrido[4,3-d]pyrimidin-4-yl)-N,N-dimethyl-5,6,7,8-tetrahydro-4H-pyrazolo[1,5-a][1,4]diazepine-2-carboxamide]	> 10000 nM	19.7 nM	–	–
–	–	–	> 1000 nM	1990 nM	CCc1c(F)ccc2cc(O)cc(-c3ncc4c(N5CCC[C@](C)(O)C5)nc(OCC56CCCN5CC5(C6)CC5(F)F)nc4c3F)c12 (stereo in doubt) [Example A-13A, (S)-1-(2-(((trans)-2,2-difluorodihydro-1′H,3′H-spiro[cyclopropane-1,2′-pyrrolizin]-7a′ (5′H)-yl)methoxy)-7-(8-ethyl-7-fluoro-3-hydroxynaphthalen-1-yl)-8-fluoropyrido[4,3-d]pyrimidin-4-yl)-3-methylpiperidin-3-ol]	–	–	> 10000 nM	634 nM
10.1 nM	2270 nM	432 nM	–	–	C#Cc1c(F)ccc2cc(O)cc(-c3ncc4c(N5CC6CCC(C5)N6)nc(OC[C@@]56CCCN5C[C@H](F)C6)nc4c3F)c12 [MRTX1133, reference compound]	> 10000 nM	319 nM	–	–
